This is an account of results in paper PMC13071878, “Yeast Display Technology Enables Rapid Discovery of Low-Nanomolar Macrocyclic Peptide Inhibitors of Human Angiotensin-Converting Enzyme 2” (Journal of Medicinal Chemistry, 2026).

For data set [1], the target named is T1, hACE2 (Homo sapiens, UniProt Q9BYF1). Put plainly: biochemical.
Experimental: The activity assay was performed by incubating 0.25 nM of hACE2 with 50 μM fluorogenic substrate Mca-Ala-Pro-Lys­(Dnp)–OH (MedChemExpress, Monmouth Junction, NJ, USA) and 3-fold MP dilutions (ranging from 0.03 nM to 100 μM). […] All reagents were diluted in 10 mM Tris–HCl, pH 7.4, 300 mM NaCl, 100 μM ZnCl2, 0.1% w/v BSA, and 0.1% v/v DMSO assay buffer. The measurements were performed on a Berthold TriStar LB 941 microplate reader (Berthold Technologies, Bad Wildbad, Germany) using flat-bottom 96-well half area Corning Costar plates (Corning, New York, USA). The enzymatic reactions were performed at 25 °C for 90 min, under shaking with a maximum excitation wavelength (λex) of 320 nm and maximum emission wavelength (λem) of 405 nm. The initial velocities were monitored as changes in fluorescence intensity. Half-maximum inhibitory concentration (IC50) values were determined using GraphPad Prism v8.2.1 software (GraphPad software Inc., San Diego, CA, USA). […] Fluorescence was recorded as described earlier (λex = 320 nm, λem = 405 nm) using a Berthold TriStar LB 941 microplate reader (Berthold Technologies, Bad Wildbad, Germany). Initial velocities (V 0) were plotted against substrate concentrations [S] and analyzed via nonlinear regression using a one-site specific binding model using GraphPad Prism v8.2.1 software (GraphPad software Inc., San Diego, CA, USA). […]
Data set [2] concerns mouse model of induced colitis. Further details: method as in ref 26 (Byrnes et al. 2009). Particulars: 300 mg/kg twice daily, citation mark lost in text, ref 26 (Byrnes et al. 2009); cited from earlier work.
Data set [3] has as its target T1, hACE2. The data set is described as follows: Isothermal titration calorimetry of synthetic MPs with hACE2. Particulars: 25 °C. The format is binding. As to the method: Isothermal titration calorimetry (ITC) experiments were performed at 25 °C using a MicroCal iTC200 instrument ([…], Malvern Panalytical, Malvern, UK). The hACE2 protein (initial stock 11 mg/mL, 20 mM Tris pH 7.4, 200 mM NaCl) was diluted into the assay buffer (100 mM Tris pH 7.4, 200 mM NaCl) to a final concentration of 5 μM. […] Titrations consisted of an initial 0.4 μL injection (excluded from subsequent data analysis), followed by 18 injections of 2 μL each, with a stirring rate of 750 rpm to ensure rapid mixing. A 120 s interval was maintained between injections to ensure the baseline returned to equilibrium. Blank experiments involving the titration of the synthetic MPs into the assay buffer were performed to determine and subtract the heats of dilution. Data processing was conducted using the Origin software package version 7 (OriginLab Corporation, Northampton, MA, USA). The integrated heat signals were fitted to a single-site binding model to determine the association constant (K A), the dissociation constant ([…]), the enthalpy change (ΔH), and the binding stoichiometry (n). The Gibbs free energy (ΔG) and the entropy change (ΔS) were calculated using the standard thermodynamic relationship: ΔG=ΔH−TΔS=−RTln(KA)
For orientation: In ITC the heat of successive injections is recorded.

For data set [4], the target named is T1, hACE2. Put plainly: Grating-coupled interferometry of synthetic MPs on immobilized hACE2. The following applies: synthetic MP, immobilized hACE2, 25 °C, pH 7.4, n = 1; read-out: KD (GCI). The format is binding.
Experimental: Measurements were performed using a Creoptix WAVEsystem and a 4PCH-STA WAVEchip (Creoptix, Malvern Panalytical, Malvern, UK). Prior to immobilization, all four flow channels were conditioned with 100 mM sodium borate, 1 M NaCl buffer pH 9.0, for 180 s at 10 μL/min, followed by three start-up cycles (3 cycles of 60 s at 10 μL/min) in running buffer (1X PBS pH 7.4 supplemented with 0.005% v/v Tween-20). Biotinylated hACE2 (10 μg/mL in running buffer) was captured on the chip surface with a 420 s injection cycle at 10 μL/min, achieving a target immobilization level of approximately 1000 pg/mm^2 surface mass per flow cell. Excess of unbound hACE2 was removed by washing with running buffer for 60 s at 10 μL/min. Binding experiments were conducted using regeneration-free kinetics (RFK). Seven serial 2-fold dilutions of each synthetic MP (2.5, 5, 10, 20, 40, 80, and 160 nM in running buffer) were injected at 25 °C with a continuous flow rate of 60 μL/min. Each MP concentration was allowed to associate for 60 s and dissociate for 45 s, with a final dissociation phase of 300 s monitored after the highest concentration. Response signals were double-referenced by subtracting the signal from an unmodified reference channel (untreated flow cell without hACE2 protein) and the signal from blank buffer injections to correct for bulk refractive index changes and systematic artifacts.
For another data set, the target named is T2, hACE1 (Homo sapiens, UniProt P12821).
T2 construct: purchased R&D Systems
Put plainly: biochemical.

The nature of data set [5]: Plasma stability of synthetic peptides (LC-MS). Particulars: 37 °C. On the procedure:
The mixtures were incubated at 37 °C in a water bath (VWR, Pennsylvania, PA, USA). At designated time points (0, 0.25, 0.5, 1, 2, 4, 8, 24, and 48 h), 100 μL aliquots were withdrawn and quenched with 100 μL of 100% v/v ACN. Following centrifugation (10 min at 15000 g, 4 °C), 100 μL of the supernatant was collected and diluted with 50 μL of solvent A (99.9% v/v H2O and 0.1% v/v FA). Samples were characterized by LC–MS using an Agilent 1260 Infinity II LC system coupled to an InfinityLab LC/MSD mass spectrometer (Agilent Technologies, Santa Clara, CA, USA). The system operated with a standard ESI source in negative ionization mode. Separation was performed on a reversed-phase Symmetry C18 column (5 μm, 150 mm × 4.6 mm, Waters, Milford, MA, USA) using a linear gradient of 10–100% solvent B over 22 min at a flow rate of 0.6 mL/min (Solvent A: 99.9% v/v H2O and 0.1% v/v FA; Solvent B: 99.9% v/v ACN and 0.1% v/v FA). Data acquisition, processing, and analysis were performed using MestReNova v.12.0.1 (Mestrelab Research, Santiago de Compostela, Spain). All samples were analyzed in duplicate (n = 2). The percentage of remaining peptide was calculated by integrating the peak areas, with the area at 0 h defined as 100%. Half-lives (t 1/2) were determined via nonlinear regression analysis using GraphPad Prism (GraphPad software Inc., San Diego, CA, USA). Data are presented as mean values ± s.d.

T1 sequence (Q9BYF1 19-615): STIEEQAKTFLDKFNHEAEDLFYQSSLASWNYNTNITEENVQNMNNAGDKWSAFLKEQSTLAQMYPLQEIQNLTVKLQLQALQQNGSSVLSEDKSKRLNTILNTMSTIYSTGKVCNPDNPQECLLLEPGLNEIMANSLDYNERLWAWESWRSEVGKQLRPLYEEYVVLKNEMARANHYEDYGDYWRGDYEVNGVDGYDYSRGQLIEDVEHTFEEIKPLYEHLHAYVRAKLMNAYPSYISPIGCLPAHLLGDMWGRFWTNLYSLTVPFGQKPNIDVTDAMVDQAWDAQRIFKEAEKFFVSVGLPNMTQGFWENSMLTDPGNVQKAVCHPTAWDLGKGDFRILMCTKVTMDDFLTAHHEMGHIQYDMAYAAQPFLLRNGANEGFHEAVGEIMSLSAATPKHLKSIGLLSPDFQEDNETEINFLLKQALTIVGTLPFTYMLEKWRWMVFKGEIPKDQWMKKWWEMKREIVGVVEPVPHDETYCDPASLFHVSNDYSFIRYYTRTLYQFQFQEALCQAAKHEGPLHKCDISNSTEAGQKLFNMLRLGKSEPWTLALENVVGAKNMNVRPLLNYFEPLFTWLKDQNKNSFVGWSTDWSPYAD
T2 sequence (P12821 30-1306): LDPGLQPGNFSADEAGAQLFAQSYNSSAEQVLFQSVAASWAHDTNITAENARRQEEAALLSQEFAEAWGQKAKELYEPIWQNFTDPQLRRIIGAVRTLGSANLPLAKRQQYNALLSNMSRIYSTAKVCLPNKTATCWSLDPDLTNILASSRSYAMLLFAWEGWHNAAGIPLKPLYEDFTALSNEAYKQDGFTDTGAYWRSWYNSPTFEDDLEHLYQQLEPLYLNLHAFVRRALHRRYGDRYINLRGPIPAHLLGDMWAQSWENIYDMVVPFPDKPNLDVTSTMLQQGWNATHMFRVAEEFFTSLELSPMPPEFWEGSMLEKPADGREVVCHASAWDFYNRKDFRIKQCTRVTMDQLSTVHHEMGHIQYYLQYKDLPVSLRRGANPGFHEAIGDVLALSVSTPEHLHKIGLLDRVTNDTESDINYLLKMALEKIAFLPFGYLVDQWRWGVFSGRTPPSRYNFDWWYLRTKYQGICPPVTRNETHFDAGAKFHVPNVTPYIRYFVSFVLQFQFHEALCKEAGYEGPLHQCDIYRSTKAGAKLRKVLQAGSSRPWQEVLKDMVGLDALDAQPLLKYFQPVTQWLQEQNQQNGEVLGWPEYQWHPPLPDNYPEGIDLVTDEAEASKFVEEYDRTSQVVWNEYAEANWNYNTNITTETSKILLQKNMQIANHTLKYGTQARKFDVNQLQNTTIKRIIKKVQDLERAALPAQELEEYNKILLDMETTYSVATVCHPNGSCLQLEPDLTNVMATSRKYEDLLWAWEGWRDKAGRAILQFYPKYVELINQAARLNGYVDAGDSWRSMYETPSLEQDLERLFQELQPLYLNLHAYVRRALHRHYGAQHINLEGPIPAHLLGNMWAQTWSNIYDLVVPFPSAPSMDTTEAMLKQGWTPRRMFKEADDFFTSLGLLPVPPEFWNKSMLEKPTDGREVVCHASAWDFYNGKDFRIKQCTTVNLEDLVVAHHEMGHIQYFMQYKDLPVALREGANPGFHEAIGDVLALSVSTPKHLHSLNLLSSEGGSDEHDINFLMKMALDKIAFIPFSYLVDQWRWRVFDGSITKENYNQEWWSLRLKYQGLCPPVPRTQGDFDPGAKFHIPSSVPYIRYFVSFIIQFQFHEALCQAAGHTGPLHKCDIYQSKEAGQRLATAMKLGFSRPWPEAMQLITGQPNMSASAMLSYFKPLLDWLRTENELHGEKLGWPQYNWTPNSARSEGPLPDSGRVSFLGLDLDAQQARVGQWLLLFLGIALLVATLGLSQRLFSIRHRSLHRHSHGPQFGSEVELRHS
Experimental for hACE1: The activity assay was performed by incubating 0.25 nM of hACE2 with 50 μM fluorogenic substrate Mca-Ala-Pro-Lys­(Dnp)–OH (MedChemExpress, Monmouth Junction, NJ, USA) and 3-fold MP dilutions (ranging from 0.03 nM to 100 μM). […] All reagents were diluted in 10 mM Tris–HCl, pH 7.4, 300 mM NaCl, 100 μM ZnCl2, 0.1% w/v BSA, and 0.1% v/v DMSO assay buffer. The measurements were performed on a Berthold TriStar LB 941 microplate reader (Berthold Technologies, Bad Wildbad, Germany) using flat-bottom 96-well half area Corning Costar plates (Corning, New York, USA). The enzymatic reactions were performed at 25 °C for 90 min, under shaking with a maximum excitation wavelength (λex) of 320 nm and maximum emission wavelength (λem) of 405 nm. The initial velocities were monitored as changes in fluorescence intensity. Half-maximum inhibitory concentration (IC50) values were determined using GraphPad Prism v8.2.1 software (GraphPad software Inc., San Diego, CA, USA). […] Reactions were initiated by adding hACE2 (final concentration 0.25 nM) to the fluorogenic substrate in assay buffer at 25 °C. Fluorescence was recorded as described earlier (λex = 320 nm, λem = 405 nm) using a Berthold TriStar LB 941 microplate reader (Berthold Technologies, Bad Wildbad, Germany). Initial velocities (V 0) were plotted against substrate concentrations [S] and analyzed via nonlinear regression using a one-site specific binding model using GraphPad Prism v8.2.1 software (GraphPad software Inc., San Diego, CA, USA). […] All reagents were diluted in 10 mM Tris-HCl, pH 7.4, 300 mM NaCl, 100 μM ZnCl2, 0.1% w/v BSA, and 0.1% v/v DMSO buffer. Measurements and data analysis were performed as mentioned above.

One may read the Ki as a measure of affinity in units of concentration, obtained from inhibition or displacement. The low end stands for tighter binding, the high end for weaker binding. In the case of `CC(C)C[C@@H]1NC(=O)[C@H](Cc2ccccc2)NC(=O)[C@@H](NC(=O)[C@H](C)N)CSSC[C@@H]2NC(=O)[C@H](CCCCN)NC(=O)[C@H](C(C)C)NC(=O)[C@H](CC(=O)O)NC(=O)[C@H](CCCNC(=N)N)NC(=O)[C@H](Cc3c[nH]cn3)NC(=O)[C@H](CSSC[C@@H](C(=O)N[C@@H](CO)C(=O)NCC(N)=O)NC(=O)[C@H](Cc3c[nH]c4ccccc34)NC(=O)[C@H](CC(C)C)NC(=O)[C@H](Cc3c[nH]c4ccccc34)NC2=O)NC(=O)[C@H](CCCNC(=N)N)NC1=O` [GR3.1.3], the inhibition constant Ki on hACE2 [1] amounted to 1.04 µM.

Take `CC(C)C[C@H](N[C@@H](Cc1cncn1Cc1cc(Cl)cc(Cl)c1)C(=O)O)C(=O)O` [MLN-4760]: the “effect on disease severity” value in data set [2] is recorded as “reduce disease severity”.

By Kd is commonly meant the equilibrium constant for the complex coming apart. For orientation: IC50 means the midpoint of a concentration-inhibition curve. A lower IC50 goes with greater potency in that assay. What is called half-life is the time in which the quantity being followed falls by half. `CC(C)C[C@@H]1NC(=O)[C@H](Cc2ccccc2)NC(=O)[C@@H](NC(=O)[C@H](C)N)CSSC[C@@H](C(=O)N[C@@H](CO)C(=O)NCC(N)=O)NC(=O)[C@H](Cc2c[nH]c3ccccc23)NC(=O)[C@H](CC(C)C)NC(=O)[C@H](Cc2c[nH]c3ccccc23)NC(=O)[C@@H]2CSSC[C@H](NC(=O)[C@H](CCCNC(=N)N)NC1=O)C(=O)N[C@@H](Cc1c[nH]cn1)C(=O)N[C@@H](CCCNC(=N)N)C(=O)N[C@@H](CC(=O)O)C(=O)N[C@@H](C(C)C)C(=O)N[C@@H](CCCCN)C(=O)N2` [GR3.1.2]: the “ΔH (ITC)” value at hACE2 [3] was -8.15 ± 0.14 kcal/mol. The “-TΔS (ITC)” value on hACE2 [3] (calculated) was -1.96 kcal/mol. Besides, the Kd on hACE2 [4] turned out to be 0.0041 µM. For the same compound, at hACE1, the IC50 was > 100 µM and the Ki is > 100 µM. For the same compound, affinity on hACE2 [1] was put at a Ki of 0.0015 µM. Further, in data set [5] (human plasma), the “t1/2 times longer than GR1.1” value was found to be 1.5 times and the “t1/2 times longer than GR1.4” value is reported as 1.3 times. Further, the half-life in data set [5] (human, plasma, plasma half-life t1/2, human plasma, 10 μM, LC-MS, n = 2) was 8.6 h.
